From patent publication US8647867B2, “Cell cultivation method and cell culture” (National University Corportion Okayama University, priority 2005, dated 2014)

Tested on: human pancreatic islet
Assay: Insulin production ability of cultured human pancreatic islet
Type: cell-based
Description: Healthy isolated human pancreatic islets provided from Alberta University in Canada (those skilled in the art can obtain them from Canada, Alberta University, human pancreatic islet transplantation program, Dr. Jonathan R T. Lakey) were seeded in a T25 10 culture flask.
Insulin production abilities of cultured human pancreatic islet were determined and compared between groups A and B. Using low glucose DMEM (glucose concentration: […]) (available from GIBCO, Oakland, N.J.) supplemented with 10% FCS, nicotineamide 10 mM and penicillin G/streptomycin, cells were cultured for 24 hours until 60% confluency (low glucose). Then, the medium was changed for high glucose DMEM (glucose concentration: […]) (available from GIBCO, Oakland, N.J.) supplemented with 10% FCS, nicotineamide 10 mM and penicillin G/streptomycin, and cells were cultured for 6 hours (high glucose). After high glucose culture, the medium was exchanged for low glucose DMEM and cells were cultured for 6 hours (low glucose (after)). After respective culture operations, the production amount of insulin in the culture medium (μg/l) was determined by an immunostaining method using a rabbit anti-human insulin antibody (available from DakoCytomation K. K., Kyoto, Japan).

CC(=O)N[C@@H](CCCNC(=N)N)C(=O)N[C@@H](C)C(=O)N[C@@H](CC(=O)O)C(=O)N[C@@H](C)C(=O)N[C@@H](CCCNC(=N)N)C(=O)N[C@@H](C)C(=O)N[C@@H](CC(=O)O)C(=O)N[C@@H](C)C(=O)N[C@@H](CCCNC(=N)N)C(=O)N[C@@H](C)C(=O)N[C@@H](CC(=O)O)C(=O)N[C@@H](C)C(=O)N[C@@H](CCCNC(=N)N)C(=O)N[C@@H](C)C(=O)N[C@@H](CC(=O)O)C(=O)N[C@@H](C)C(N)=O [Group A, Ac-(RADA)4-CONH2]
production amount of insulin in the culture medium (human islets (10 seeded), day 1 of culture, low glucose (100 g/l, 24 hours)): 0.60 µg/L | production amount of insulin in the culture medium (human islets, day 1 of culture, high glucose (450 g/l, 6 hours)): 1.89 µg/L | production amount of insulin in the culture medium (human islets, day 1 of culture, low glucose (after), 6 hours): 1.13 µg/L | production amount of insulin in the culture medium (human islets, day 3 of culture, high glucose (450 g/l, 6 hours)): 1.68 µg/L | production amount of insulin in the culture medium (human islets, day 3 of culture, low glucose (100 g/l, 24 hours)): 0.58 µg/L | production amount of insulin in the culture medium (human islets, day 3 of culture, low glucose (after), 6 hours): 1.11 µg/L | production amount of insulin in the culture medium (human islets, day 5 of culture, high glucose (450 g/l, 6 hours)): 1.43 µg/L | production amount of insulin in the culture medium (human islets, day 5 of culture, low glucose (100 g/l, 24 hours)): 0.51 µg/L | production amount of insulin in the culture medium (human islets, day 5 of culture, low glucose (after), 6 hours): 1.10 µg/L | production amount of insulin in the culture medium (human islets, day 7 of culture, high glucose (450 g/l, 6 hours)): 0.76 µg/L | production amount of insulin in the culture medium (human islets, day 7 of culture, low glucose (100 g/l, 24 hours)): 0.41 µg/L | production amount of insulin in the culture medium (human islets, day 7 of culture, low glucose (after), 6 hours): 0.54 µg/L | amount of insulin secreted in high glucose concentration (response to glucose concentration) (human pancreatic islet, day 7 of culture): increased
